Experimental data as given in patent publication US20230218559A1, “Compositions and Methods for Treating Aging and Age-Related Diseases and Symptoms” (The Regents of the University of California, priority 2014, published 2023).
Each block holds one molecule with its values, some of them ahead of it.

Legend:
[1] = tested on: normal human diploid fibroblasts WI-38; experiment: Cell growth assay; assay type: cell-based; conditions: data not shown
Procedure: (§1) Cells were seeded in 12-well plates and after overnight incubation were treated with indicated concentrations of each compound. After harvesting, cells were stained by Acridine Orange (AO) and DAPI. Cell number and viability were measured based on AO and DAPI fluorescence measured by NC3000 (Chemometec) following the manufacturer's instructions.

[2] = tested on: HEK 293 cells; experiment: Cell growth assay; assay type: cell-based, human; conditions: data not shown
Procedure: as §1

[3] = tested on: A549; experiment: Cell growth assay; assay type: cell-based, human; conditions: data not shown
Procedure: as §1

[4] = tested on: Jurkat; experiment: Cell growth assay; assay type: cell-based, human; conditions: data not shown
Procedure: as §1

[5] = target: T1, ATP synthase (Complex V) (Mus musculus, UniProt P56480); experiment: Mitochondrial coupling assay / respiratory control ratio; assay type: biochemical; conditions: mouse liver mitochondria
T1 construct: Mitochondria were isolated from mouse liver as described above; from tissue; host or cells: isolated mouse liver mitochondria
Procedure: Mitochondrial RCR was analyzed using isolated mouse liver mitochondria (see Brand, et al. Biochem J 435, 297-312 (2011) and references therein). Mitochondria were isolated from mouse liver as described above. The final mitochondrial pellet was resuspended in 30 μl of MAS buffer (70 mM sucrose, 220 mM mannitol, 10 mM KH2PO4, 5 mM MgCl2, 2 mM HEPES, 1 mM EGTA, and 0.2% fatty acid free BSA, pH 7.2).
Isolated mitochondrial respiration was measured by running coupling and electron flow assays as described (Rogers, et al. PLoS One 6, e21746 (2011)). For the coupling assay, 20 μg of mitochondria in complete MAS buffer (MAS buffer supplemented with 10 mM succinate and 2μM rotenone) were seeded into a XF24 Seahorse plate by centrifugation at 2,000×g for 20 minutes at 4° C. […] Mitochondrial respiration begins in a coupled State 2; State 3 is initiated by 2 mM ADP; State 4o (oligomycin-insensitive, i.e., Complex V-independent) is induced by 2.5 μM oligomycin and State 3u (FCCP uncoupled maximal respiratory capacity) by 4 μM FCCP. Finally, 1.5 μg/ml antimycin A was injected at the end of the assay.

[6] = tested on: electron transport chain (Complex I, Complex II, Complex IV); experiment: Mitochondrial electron flow assay; assay type: biochemical, mouse
Procedure: Mitochondria were isolated from mouse liver as described above.
For the electron flow assay, the MAS buffer was supplemented with 10 mM sodium pyruvate (Complex I substrate), 2 mM malate (Complex II inhibitor), and 4 μM FCCP, and the mitochondria are seeded the same way as described for the coupling assay. After basal readings, the sequential injections were as follows: 2 μM rotenone (Complex I inhibitor), 10 mM succinate (Complex II substrate), 4 μM antimycin A (Complex III inhibitor), and 10 mM/100 μM ascorbate/tetramethylphenylenediamine (Complex IV substrate).

[7] = tested on: C. elegans; experiment: C. elegans lifespan analysis; assay type: in vivo, Caenorhabditis elegans; conditions: for mean lifespan: 8 mM; for effect on lifespan of adult C. elegans (in words): adult worms, metabolites at 8 mM; for lifespan of subjects (in words): experiments similar to those for α-KG and 2-HG compounds, data not shown
Procedure: Lifespan assays were conducted at 20° C. on solid nematode growth media (NGM) using standard protocols and were replicated in at least two independent experiments. […] All compounds were mixed into the NGM media after autoclaving and before solidification of the media. Assay plates were seeded with OP50 (or a designated RNAi feeding clone, see below). Worms were moved to new assay plates every 4 days (to ensure sufficient food was present at all times and to reduce the risk of mold contamination). […] For analysis concerning mutant strains, the corresponding parent strain was used as a control in the same experiment. […]
Lifespan data is provided in FIG. 13, including sample sizes. The sample size was chosen on the basis of standards done in the field in published manuscripts. No statistical method was used to predetermine the sample size. Animals were assigned randomly to the experimental groups. […] Lifespan data were analyzed using GraphPad Prism; P-values were calculated using the log-rank (Mantel-Cox) test.

[8] = target: T2, ATP5B (Homo sapiens, UniProt P06576); experiment: DARTS (drug affinity responsive target stability) with Western blotting; assay type: binding; conditions: human cell lysates, Pronase digestion
T2 construct: HeLa cells were lysed in M-PER buffer; endogenous in cells; host or cells: HeLa (alpha-KG); U87 (2-HG)
Procedure: Target identification using DARTS was conducted in accordance with methods know in the art. […] The resulting digests were separated by SDS-PAGE and visualized using SYPRO Ruby Protein Gel Stain (Invitrogen, S12000).
GAPDH (Ambion, AM4300) was used as a negative control.
For 2-HG experiments, DARTS was performed as described above.

[9] = tested on: U87 cells
Procedure: Cells were cultured for 24 hours, rinsed with PBS, and medium containing [1,2-^13C]glucose (1 g/L) added. […] Cells were scraped off, transferred to an Eppendorf tube, and 10 nmol norvaline as well as 400 ml chloroform added to each sample. For the metabolite extraction, samples were vortexed for 5 minutes on ice, spun down, and the aqueous layer transferred into a glass vial and dried. Metabolites were resuspended in 70% ACN, and 5 ml sample loaded onto a Phenomenex Luna 3u NH2 100A (150×2.0 mm) column. The chromatographic separation was performed on an UltiMate 300RSLC (Thermo Scientific) with mobile phases A (5 mM NH4AcO, pH 9.9) and B (ACN) and a flow rate of 300 ml / minutes. […] TraceFinder 3.1 (Thermo Scientific) was used to quantify metabolites as area under the curve using retention time and accurate mass measurements (≤3 ppm). Relative amounts of metabolites were calculated by summing up all isotopomers of a given metabolite.

[10] = tested on: U87 cells; experiment: Assay for ATP levels in U87 cells; assay type: cell-based, human; conditions: mitochondrial oxidative phosphorylation conditions, 2 hours
Procedure: For 2-HG experiments, U87 cells were seeded in 96-well plates at 2×10^4 cells per well and treated with indicated compound for 2 hours in triplicate. ATP levels were measured using the CellTiter-Glo luminescent ATP assay (Promega, G7572); luminescence was read using Analyst HT (Molecular Devices). […] Statistical analysis was performed using GraphPad Prism (unpaired t-test).

[11] = tested on: U87 cells; experiment: Oxygen consumption rate in U87 cells (2-HG experiments); assay type: cell-based, human
Procedure: For 2-HG experiments, OCR and ECAR measurements were made using a Seahorse XF-24 analyzer (Seahorse Bioscience) (Wu, et al. Am J Physiol Cell Physiol 292, C125-136 (2007)). U87 cells were seeded in Seahorse XF-24 cell culture microplates at 50,000 cells per well in DMEM supplemented with 10% FBS and either 10 mM glucose or 10 mM galactose, and incubated 0/N at 37° C. in 5% CO2. […] Cells were washed in unbuffered DMEM (pH 7.4, 10 mM glucose) immediately prior to measurement, and maintained in this buffer with indicated concentrations of compound. OCR or ECAR were measured 3 times under basal conditions and normalized to protein concentration per well. Statistical analysis was performed using GraphPad Prism (unpaired t-test, two-tailed, two-sample unequal variance).

[12] = tested on: U87 cells; experiment: Cell growth and viability assays in U87 cells; assay type: cell-based, human
Procedure: IDH1(R132H) mutant or IDH1(WT) expressing U87 cells were as reported (Li, et al. Neuro Oncol 15, 57-68). […] All the cells were cultured at 37° C. and 5% CO2. Cells were transfected with indicated siRNA using Thermo Scientific DharmaFECT Transfection Reagent 1 by following the manufacturer's instructions.
as §1

[13] = tested on: ADP import into the mitochondria; experiment: Assay for ADP import; assay type: biochemical; conditions: mouse liver mitochondria, 600 μM; (R) P=0.4237, (S) P=0.1623
Procedure: Freshly prepared mice liver mitochondria were suspended at 1 μg/μl in medium consisting of 220 mM mannitol, 70 mM sucrose, 2 mM HEPES, 2.74 μM antimycin A, 5 μM rotenone, 1 mM
EGTA, and 10 mM potassium phosphate buffer, pH 7.4. The mitochondria suspension was incubated with designated drug for 30 minutes in 37° C. After incubation, the suspension was transferred to ice for 10 minutes incubation. Afterwards, 100 μM [^3H]ADP (specific radioactivity, 185 kBq/pmol) was added, and the mixture was immediately vortexed and incubated for 20 seconds on ice. The reaction was terminated by addition of 10 μM carboxyatractyloside, and the mixture was centrifuged at 10,000 g for 10 minutes at 4° C. After centrifuge, the supernatant was collected for reading and the pellet was washed twice with the same medium supplemented with 10 μM carboxyatractyloside. After washing, the pellet was lysed by the addition of 0.2 ml of 1% SDS. The radioactivity of the lysate and supernatant was determined by TRI-CARB 2300 TR liquid scintillation analyzer. The ADP-ATP translocation rate was determined by the ratio of the pellet versus the sum reading of the pellet and supernatant.

[14] = tested on: mTOR; experiment: Assay for mammalian TOR (mTOR) pathway activity; assay type: cell-based, human; conditions: U87 cells
Excerpt: Specific antibodies used: P-S6K T389 (Cell Signaling Technology, 9234), S6K (Cell Signaling Technology, 9202S), P-4E-BP1 S65 (Cell Signaling Technology, 9451S), 4E-BP1 (Cell Signaling Technology, 9452S), P-AKT S473 (Cell Signaling Technology, 4060S), AKT (Cell Signaling Technology, 4691S), P-ULK1 S757 (Cell Signaling Technology, 6888), ULK1 (Cell Signaling Technology, 4773S), and GAPDH (Santa Cruz Biotechnology, 25778).

[15] = tested on: C. elegans; experiment: Assay for autophagy in C. elegans (GFP::LGG-1 puncta); assay type: in vivo, Caenorhabditis elegans
Procedure: Statistical analysis was performed using Microsoft Excel (t-test, two-tailed, two-sample unequal variance).

[16] = tested on: AMPK; experiment: AMPK (T172) phosphorylation by Western blotting; assay type: cell-based, human; conditions: WI-38 cells; higher concentration of octyl α-KG
Procedure: Western blotting was performed with specific antibodies against P-AMPK T172 (Cell Signaling Technology, 2535S) and AMPK (Cell Signaling Technology, 2603S). […] Number of GFP::LGG-1 containing puncta was quantitated using ImageJ. Bars indicate the mean. […] HEK-293 (Panel d) or HeLa (Panel e) cells were lysed in M-PER buffer (Thermo Scientific, 78501) with the addition of protease inhibitors (Roche, 11836153001) and phosphatase inhibitors (50 mM NaF, 10 mM β-glycerophosphate, 5 mM sodium pyrophosphate, 2 mM Na3VO4). Protein concentration of the lysate was measured by BCA Protein Assay kit (Pierce, 23227). […] Pronase (Roche, 10165921001) digestions were performed for 20 minutes at room temperature, and stopped by adding SDS loading buffer and immediately heating at 95° C. for 5 minutes (for Panel d) or 70° C. for 10 minutes (for Panel e). Samples were subjected to SDS-PAGE on 4-12% Bis-Tris gradient gel (Invitrogen, NP0322BOX) and Western blotted with specific antibodies against ATP5B (Santa Cruz, sc58618), mTOR (Cell Signaling Technology, 2972), or GAPDH (Ambion, AM4300). ImageJ was used to quantify the mTOR/GAPDH and ATP5B/GAPDH ratios.

T2 sequence (P06576 48-529): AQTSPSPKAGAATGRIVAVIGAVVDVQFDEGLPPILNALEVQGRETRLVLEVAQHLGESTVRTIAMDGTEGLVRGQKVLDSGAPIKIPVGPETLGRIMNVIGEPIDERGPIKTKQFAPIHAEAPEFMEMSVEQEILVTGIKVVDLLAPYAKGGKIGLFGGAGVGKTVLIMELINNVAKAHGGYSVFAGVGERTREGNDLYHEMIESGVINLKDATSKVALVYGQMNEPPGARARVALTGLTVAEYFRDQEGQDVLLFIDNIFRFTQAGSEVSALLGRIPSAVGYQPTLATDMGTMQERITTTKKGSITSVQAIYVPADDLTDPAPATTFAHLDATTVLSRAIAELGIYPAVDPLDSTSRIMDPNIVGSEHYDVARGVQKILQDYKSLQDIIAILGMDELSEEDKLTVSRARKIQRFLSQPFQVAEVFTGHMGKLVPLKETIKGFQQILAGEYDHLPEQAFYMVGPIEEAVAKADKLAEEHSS

Compound: O=C(O)CCC(O)C(=O)O (stereo not shown) [2-HG, 2-hydroxypentanedioate]
cell growth [1]: Growth inhibition
cell growth [2]: Growth inhibition
cell growth [3]: Growth inhibition
cell growth [4]: Growth inhibition

coupling assay, 1-octyl versus 5-octyl ester [5]: identical results
Compound: CCCCCCCCOC(=O)CCC(=O)C(=O)O [5-octyl α-KG, 5-(Octyloxy)-2,5-dioxopentanoic acid]
electron flow assay, 1-octyl versus 5-octyl ester ([6]; mouse liver mitochondria): identical results

binding to ATP5B by DARTS [8]: bind
Compound: O=C(O)CC[C@@H](O)C(=O)O [(R)-2-HG, 2-hydroxyglutaric acid]
mean lifespan ([7]; FIG. 14 Panel B, vehicle 14.0): 20.0 days of adulthood
effect on lifespan of adult C. elegans (in words) [7]: increase the lifespan

binding to ATP5B by DARTS [8]: bind
Compound: O=C(O)CC[C@H](O)C(=O)O [(S)-2-HG, 2-hydroxyglutaric acid]
mean lifespan ([7]; FIG. 14 Panel C, vehicle 15.7): 20.7 days of adulthood
effect on lifespan of adult C. elegans (in words) [7]: increase the lifespan

Compound: N[C@H](CCC(=O)O)C(=O)O [D-glutamate]
lifespan of subjects (in words) [7]: increases the lifespan

Compound: N[C@@H](CCC(=O)O)C(=O)O [L-glutamate]
lifespan of subjects (in words) [7]: increases the lifespan

Compound: CC(C)C[C@H](N)C(=O)O [Leu]
mean lifespan ([7]; FIG. 14 Panel B, vehicle 14.0): 13.2 days of adulthood

Compound: CSCC[C@H](N)C(=O)O [Met]
mean lifespan ([7]; FIG. 14 Panel B, vehicle 14.0): 14.7 days of adulthood

Compound: O=C([O-])CCC(=O)C(=O)[O-].[Na+].[Na+] [Na2α-KG]
mean lifespan ([7]; FIG. 14 Panel C, vehicle 15.7): 21.5 days of adulthood

state 3 respiration ([5]; 600 μM, octanol vehicle): decreases
state 4o or 3u respiration ([5]; 600 μM, octanol vehicle): not
accumulation of 2-HG in treated cells [9]: 20-100 fold
Compound: CCCCCCCCOC(=O)C(O)CCC(=O)O (stereo not shown) [octyl 2-HG]
ATP content [10]: decreased
Complex I, Complex II, or Complex IV respiration ([6]; 30 minute treatment, 600 μM): No difference
ATP synthase dependent (oligomycin sensitive) oxygen consumption rate ([11]; U87 cells): decreased
respiration as indicated by OCR ([11]; U87 cells in glucose media): decreased
growth rate ([12]; glucose medium, to a lesser extent, not shown): reduced
growth rate ([12]; glucose-free medium, 400 μM and 800 μM): decreased growth rate

Compound: CCCCCCCCOC(=O)[C@H](O)CCC(=O)O [octyl (R)-2-HG, 1-Octyl (R) 2-hydroxypentanedioate]
ADP import [13]: does not affect
viability upon glucose starvation ([12]; 400 μM and 800 μM): decreased

Compound: CCCCCCCCOC(=O)[C@@H](O)CCC(=O)O [octyl (S)-2-HG, 1-Octyl (S) 2-hydroxypentanedioate]
ADP import [13]: does not affect
viability upon glucose starvation ([12]; 400 μM and 800 μM): decreased

Compound: CC[C@H]1/C=C/C=C/C[C@@H](C)[C@H](O)[C@@](C)(O)C(=O)[C@@H](C)[C@H](O)[C@@H](C)C(=O)[C@@H](C)[C@H](O)[C@@H](C)/C=C/C(=O)O[C@@H]2[C@H](C)[C@H](CC1)O[C@]1(CC[C@H](C)[C@H](C[C@@H](C)O)O1)[C@H]2C [oligomycin, reference compound]
ATP content [10]: decreased
phosphorylation of mTOR substrates [14]: decreased
increase of mean lifespan of N2 worms ([7]; 40 μM, from young adult stage): 32.3%
effect on lifespan of adult C. elegans (in words) [7]: extends the lifespan
autophagy (GFP::LGG-1 puncta) ([15]; CeTOR(RNAi) worms, oligomycin): does not augment
autophagy (GFP::LGG-1 puncta) ([15]; L3 epidermis, oligomycin 40, α-KG 8 mM, versus vehicle): significantly higher
P-AMPK (T172) [16]: increased
